Assay results published in patent US7951815B2, “Substituted 1,4,8-triazaspiro [4,5]decan-2-one compounds” (Gruenenthal GmbH, priority 2004, dated 2011).

Assays:
5-HT transporter = target: T1, 5-HT transporter (Rattus norvegicus, UniProt P31652); test: Inhibition of 5-HT uptake in rat brain synaptosomes; format: biochemical; conditions: Table III, rat, 1 μM; for inhibition at 1 µM: read-out: Uptake 5-HT, % inhibition
T1 construct: synaptosomes of rat brain areas are freshly isolated; from tissue; host or cells: rat brain synaptosomes (P2 fraction) from marrow and pons
T1 sequence (P31652 whole entry): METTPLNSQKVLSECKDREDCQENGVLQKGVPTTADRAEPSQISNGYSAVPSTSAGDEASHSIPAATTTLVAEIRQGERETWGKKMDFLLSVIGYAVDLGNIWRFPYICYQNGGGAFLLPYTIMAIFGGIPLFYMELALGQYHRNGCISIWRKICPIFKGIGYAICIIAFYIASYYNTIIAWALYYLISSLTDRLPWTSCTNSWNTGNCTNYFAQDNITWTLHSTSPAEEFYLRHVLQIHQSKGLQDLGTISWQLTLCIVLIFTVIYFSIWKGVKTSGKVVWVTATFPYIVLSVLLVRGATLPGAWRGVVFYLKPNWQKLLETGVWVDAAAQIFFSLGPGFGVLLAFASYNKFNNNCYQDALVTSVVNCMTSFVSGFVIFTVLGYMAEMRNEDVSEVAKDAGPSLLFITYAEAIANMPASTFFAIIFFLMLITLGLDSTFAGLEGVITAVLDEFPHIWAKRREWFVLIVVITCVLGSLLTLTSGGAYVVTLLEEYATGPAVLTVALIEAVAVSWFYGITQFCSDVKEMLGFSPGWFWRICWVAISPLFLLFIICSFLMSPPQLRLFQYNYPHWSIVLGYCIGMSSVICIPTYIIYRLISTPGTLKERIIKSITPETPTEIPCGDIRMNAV

[1] = tested on: batrachotoxin (BTX) binding site of the sodium channel; test: Affinity to the batrachotoxin (BTX) binding site of the sodium channel; conditions: Table III; rat cerebrocortex synaptosomes; test concentration not given
NA transporter = test: Inhibition of noradrenaline uptake in rat brain synaptosomes; format: biochemical; conditions: Table III

inhibition at 1 µM (5-HT transporter) [%]	SMILES	BTX inhibition [1]	Uptake (NA), rat, 10 μM, % inhibition (NA transporter) [%]	Uptake 5-HT, rat, 1 μM, % inhibition (5-HT transporter) [%]
–	CCOC(=O)C(C)(C)C(=O)N1CCC2(CC1)NC(CCSC)C(=O)N2Cc1ccccc1[N+](=O)[O-] (centres unmarked) [Example 331, Ethyl 1,1-dimethyl-2-[3-(2-methylsulfanylethyl)-1-(2-nitrobenzyl)-2-oxo-1,4,8-triazaspiro[4,5]dec-8-yl]-2-oxo-acetate]	46	38	58
–	C=CCN1C(=O)C(CCSC)NC12CCN(C(=O)c1cccnc1SC)CC2 (centres unmarked) [Example 290, 1-Allyl-3-(2-methylsulfanylethyl)-8-(2-methylsulfanylpyridin-3-carbonyl)-1,4,8-triazaspiro[4,5]decan-2-one]	30	31	–
–	Cc1cc(C(=O)N2CCC3(CC2)NC(CC(C)C)C(=O)N3Cc2c(Cl)cccc2Cl)c(C)o1 (centres unmarked) [Example 295, 1-(2,6-Dichlorobenzyl)-8-(2,5-dimethylfuran-3-carbonyl)-3-isobutyl-1,4,8-triazaspiro[4,5]decan-2-one]	63	36	–
–	CN1C(=O)C(Cc2ccccc2)NC12CCN(C(=O)COCc1ccccc1)CC2 (centres unmarked) [Example 141, 3-Benzyl-8-(2-benzyloxyacetyl)-1-methyl-1,4,8-triazaspiro[4,5]decan-2-one]	45	36	–
–	CN1C(=O)C(Cc2ccccc2)NC12CCN(C(=O)CC(C)(C)C)CC2 (centres unmarked) [Example 126, 3-Benzyl-8-(3,3-dimethylbutyryl)-1-methyl-1,4,8-triazaspiro[4,5]decan-2-one]	34	44	–
41	CC(C)CC1NC2(CCN(C(=O)c3cccc(Cl)c3)CC2)NC1=O (centres unmarked) [Example 90, 8-(3-Chlorobenzoyl)-3-isobutyl-1,4,8-triazaspiro[4,5]decan-2-one]	–	35	–
–	CC(C)CC1NC2(CCN(C(=O)c3ccc4c(c3)OCO4)CC2)N(Cc2c(Cl)cccc2Cl)C1=O (centres unmarked) [Example 264, 8-(Benzo[1,3]dioxole-5-carbonyl)-1-(2,6-dichlorobenzyl)-3-isobutyl-1,4,8-triazaspiro[4,5]decan-2-one]	63	36	–
–	CCOC(=O)CN1C(=O)C(CCSC)NC12CCN(C(=O)c1ccc(C(C)(C)C)cc1)CC2 (centres unmarked) [Example 297, Ethyl [8-(4-tert-butylbenzoyl)-3-(2-methylsulfanylethyl)-2-oxo-1,4,8-triazaspiro[4,5]dec-1-yl]acetate]	36	32	–
42	CSCCC1NC2(CCN(C(=O)CC3NC(=O)NC3=O)CC2)N(Cc2ccc(F)cc2)C1=O (centres unmarked) [Example 100, 5-{2-[1-(4-Fluorobenzyl)-3-(2-methylsulfanylethyl)-2-oxo-1,4,8-triazaspiro[4,5]dec-8-yl]-2-oxoethyl}imidazolidine-2,4-dione]	–	32	–
30	COc1cc(OC)cc(C(=O)N2CCC3(CC2)NC(=O)C(CC(C)C)N3)c1 (centres unmarked) [Example 92, 8-(3,5-Dimethoxybenzoyl)-3-isobutyl-1,4,8-triazaspiro[4,5]decan-2-one]	–	30	–
–	C=CCN1C(=O)C(C(C)C)NC12CCN(C(=O)c1ccc(-c3ccccc3)cc1)CC2 (centres unmarked) [Example 265, 1-Allyl-8-(biphenyl-4-carbonyl)-3-isopropyl-1,4,8-triazaspiro[4,5]decan-2-one]	34	32	–
34	O=C1NC2(CCN(C(=O)c3ccc4ccccc4c3)CC2)NC1Cc1ccccc1 (centres unmarked) [Example 122, 3-Benzyl-8-(naphthalin-2-carbonyl)-1,4,8-triazaspiro[4,5]decan-2-one]	–	38	–
44	CCCCN1C(=O)C(CCSC)NC12CCN(C(=O)c1ccc(C#N)cc1)CC2 (centres unmarked) [Example 125, 4-[1-Butyl-3-(2-methylsulfanylethyl)-2-oxo-1,4,8-triazaspiro[4,5]decan-8-carbonyl]benzonitrile]	–	36	–
32	C=CCN1C(=O)C(CCSC)NC12CCN(C(=O)CCc1ccccc1)CC2 (centres unmarked) [Example 328, 1-Allyl-3-(2-methylsulfanylethyl)-8-(3-phenylpropionyl)-1,4,8-triazaspiro[4,5]decan-2-one]	–	33	–
41	CSCCC1NC2(CCN(C(=O)c3cccc(F)c3)CC2)N(C)C1=O (centres unmarked) [Example 121, 8-(3-Fluorobenzoyl)-1-methyl-3-(2-methylsulfanylethyl)-1,4,8-triazaspiro[4,5]decan-2-one]	–	37	–
67	CCCCN1C(=O)C(CCSC)NC12CCN(C(=O)Cc1ccc(OC)c(OC)c1)CC2 (centres unmarked) [Example 97, 1-Butyl-8-[2-(3,4-dimethoxyphenyl)acetyl]-3-(2-methylsulfanylethyl)-1,4,8-triazaspiro[4,5]decan-2-one]	–	30	–
44	COc1cc(C(=O)N2CCC3(CC2)NCC(=O)N3Cc2ccccc2F)cc(OC)c1OC [Example 271, 1-(2-Fluorobenzyl)-8-(3,4,5-trimethoxybenzoyl)-1,4,8-triazaspiro[4,5]decan-2-one]	–	31	–

SMILES	inhibition at 1 µM (5-HT transporter) [%]	BTX inhibition [1]	Uptake (NA), rat, 10 μM, % inhibition (NA transporter) [%]	Uptake 5-HT, rat, 1 μM, % inhibition (5-HT transporter) [%]
CSCCC1NC2(CCN(C(=O)c3cccnc3Oc3ccccc3)CC2)N(Cc2ccccc2[N+](=O)[O-])C1=O (centres unmarked) [Example 298, 3-(2-Methylsulfanylethyl)-1-(2-nitrobenzyl)-8-(2-phenoxypyridin-3-carbonyl)-1,4,8-triazaspiro[4,5]decan-2-one]	34	48	30	–
CCOC(=O)CCC(=O)N1CCC2(CC1)NCC(=O)N2Cc1ccccc1F [Example 270, Ethyl 4-[1-(2-fluorobenzyl)-2-oxo-1,4,8-triazaspiro[4,5]dec-8-yl]-4-oxo-butanate]	31	33	37	–
CN(C)c1cccc(C(=O)N2CCC3(CC2)NC(Cc2ccccc2)C(=O)N3Cc2ccccc2)c1 (centres unmarked) [Example 99, 1,3-Dibenzyl-8-(3-dimethylaminobenzoyl)-1,4,8-triazaspiro[4,5]decan-2-one]	79	66	42	–
CC(C)CC1NC2(CCN(C(=O)c3cccnc3Cl)CC2)N(Cc2ccc(F)cc2)C1=O (centres unmarked) [Example 118, 8-(2-Chloropyridin-3-carbonyl)-1-(4-fluorobenzyl)-3-isobutyl-1,4,8-triazaspiro[4,5]decan-2-one]	38	44	30	–
CC(C)CC1NC2(CCN(C(=O)c3cccc(N(C)C)c3)CC2)N(Cc2ccccc2C#N)C1=O (centres unmarked) [Example 111, 2-[8-(3-Dimethylaminobenzoyl)-3-isobutyl-2-oxo-1,4,8-triazaspiro[4,5]dec-1-ylmethyl]benzonitrile]	58	42	38	–
CCOC(=O)CN1C(=O)C(Cc2ccccc2)NC12CCN(C(=O)c1ccc(-c3ccccc3)cc1)CC2 (centres unmarked) [Example 266, Ethyl [3-benzyl-8-(biphenyl-4-carbonyl)-2-oxo-1,4,8-triazaspiro[4,5]dec-1-yl]acetate]	94	57	38	–
